Article PMC5926251 (Japanese Journal of Cancer Research : Gann, 2000)
Where “and” joins values, the source holds several entries; their conditions need not be identical. Equal entries are not always repeated. Where two headings read alike, the source gives them in different places.

Tests used:
DNA polymerase α [1] = target: T1, DNA polymerase α (Bos taurus, UniProt A0AAA9TD94); assay: DNA polymerase assay, pol. α; format: biochemical, calf; conditions: for MIC Pol. α: Minimum inhibitory concentration: dose that resulted in inhibition of 80% or more of the activity; for MIC Pol. α / IC50: Table I; for IC50: 50%-inhibitory concentration; for Relative activity: Pol. α, Table III
T1 sequence (A0AAA9TD94 1-1441): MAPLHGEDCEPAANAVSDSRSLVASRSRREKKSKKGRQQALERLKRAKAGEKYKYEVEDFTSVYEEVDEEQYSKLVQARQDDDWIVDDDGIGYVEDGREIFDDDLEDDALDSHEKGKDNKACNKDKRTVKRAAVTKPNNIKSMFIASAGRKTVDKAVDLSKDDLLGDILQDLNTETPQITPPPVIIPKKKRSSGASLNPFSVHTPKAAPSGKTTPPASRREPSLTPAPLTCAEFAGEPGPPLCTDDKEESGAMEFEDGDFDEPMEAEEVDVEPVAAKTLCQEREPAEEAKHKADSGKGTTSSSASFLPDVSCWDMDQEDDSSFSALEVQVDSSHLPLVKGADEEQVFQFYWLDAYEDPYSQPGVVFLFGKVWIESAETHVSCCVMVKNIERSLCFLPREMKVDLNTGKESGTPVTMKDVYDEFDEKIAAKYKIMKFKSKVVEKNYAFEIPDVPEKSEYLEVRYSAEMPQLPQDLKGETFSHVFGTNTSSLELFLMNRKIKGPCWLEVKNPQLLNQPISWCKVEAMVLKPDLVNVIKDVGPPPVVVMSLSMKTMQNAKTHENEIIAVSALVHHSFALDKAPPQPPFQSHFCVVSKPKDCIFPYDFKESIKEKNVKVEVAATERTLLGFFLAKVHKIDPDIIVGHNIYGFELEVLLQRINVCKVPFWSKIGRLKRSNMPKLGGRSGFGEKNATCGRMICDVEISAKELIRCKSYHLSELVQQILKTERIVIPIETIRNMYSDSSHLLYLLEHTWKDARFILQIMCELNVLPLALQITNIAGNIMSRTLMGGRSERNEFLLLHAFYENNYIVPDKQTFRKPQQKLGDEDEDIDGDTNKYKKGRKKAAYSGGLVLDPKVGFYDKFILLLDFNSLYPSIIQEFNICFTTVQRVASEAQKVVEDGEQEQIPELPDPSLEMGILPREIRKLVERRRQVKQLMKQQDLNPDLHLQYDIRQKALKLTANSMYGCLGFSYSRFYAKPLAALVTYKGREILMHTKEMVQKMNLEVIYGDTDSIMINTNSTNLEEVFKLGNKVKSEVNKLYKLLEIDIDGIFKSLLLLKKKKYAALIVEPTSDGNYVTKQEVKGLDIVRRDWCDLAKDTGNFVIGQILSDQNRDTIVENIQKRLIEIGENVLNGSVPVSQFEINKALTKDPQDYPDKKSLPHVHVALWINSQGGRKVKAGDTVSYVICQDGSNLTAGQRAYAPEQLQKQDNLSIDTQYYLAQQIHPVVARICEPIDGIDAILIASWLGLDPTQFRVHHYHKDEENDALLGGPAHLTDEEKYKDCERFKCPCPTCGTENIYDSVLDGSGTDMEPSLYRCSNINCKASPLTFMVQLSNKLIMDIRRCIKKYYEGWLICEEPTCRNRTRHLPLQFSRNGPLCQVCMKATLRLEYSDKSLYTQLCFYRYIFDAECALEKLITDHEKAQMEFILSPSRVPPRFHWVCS

DNA polymerase β [2] = target: T2, DNA polymerase β (Rattus norvegicus, UniProt P06766); assay: DNA polymerase assay, pol. β; format: biochemical; conditions: for MIC Pol. β: Minimum inhibitory concentration: dose that resulted in inhibition of 80% or more of the activity; for Relative activity: Pol. β, Table III
DNA polymerase β [3] = target: T2, DNA polymerase β; assay: Kinetic analysis of pol. β inhibition; format: biochemical; conditions: for Inhibitory mode: from Lineweaver Burk plot
[4] = target: HIV-1 reverse transcriptase (Human immunodeficiency virus type 1 group M subtype B, UniProt P03366); assay: HIV-1 reverse transcriptase activity assay; format: biochemical; conditions: 20 µM compound, 0.05 units enzyme; Fig. 3
E. coli DNA polymerase I = E. coli DNA polymerase I (Escherichia coli, UniProt P00582); assay: E. coli DNA polymerase I activity assay; format: biochemical; conditions: 20 µM compound, 0.05 units enzyme; Fig. 3
Chain of E. coli DNA polymerase I (P00582 whole entry): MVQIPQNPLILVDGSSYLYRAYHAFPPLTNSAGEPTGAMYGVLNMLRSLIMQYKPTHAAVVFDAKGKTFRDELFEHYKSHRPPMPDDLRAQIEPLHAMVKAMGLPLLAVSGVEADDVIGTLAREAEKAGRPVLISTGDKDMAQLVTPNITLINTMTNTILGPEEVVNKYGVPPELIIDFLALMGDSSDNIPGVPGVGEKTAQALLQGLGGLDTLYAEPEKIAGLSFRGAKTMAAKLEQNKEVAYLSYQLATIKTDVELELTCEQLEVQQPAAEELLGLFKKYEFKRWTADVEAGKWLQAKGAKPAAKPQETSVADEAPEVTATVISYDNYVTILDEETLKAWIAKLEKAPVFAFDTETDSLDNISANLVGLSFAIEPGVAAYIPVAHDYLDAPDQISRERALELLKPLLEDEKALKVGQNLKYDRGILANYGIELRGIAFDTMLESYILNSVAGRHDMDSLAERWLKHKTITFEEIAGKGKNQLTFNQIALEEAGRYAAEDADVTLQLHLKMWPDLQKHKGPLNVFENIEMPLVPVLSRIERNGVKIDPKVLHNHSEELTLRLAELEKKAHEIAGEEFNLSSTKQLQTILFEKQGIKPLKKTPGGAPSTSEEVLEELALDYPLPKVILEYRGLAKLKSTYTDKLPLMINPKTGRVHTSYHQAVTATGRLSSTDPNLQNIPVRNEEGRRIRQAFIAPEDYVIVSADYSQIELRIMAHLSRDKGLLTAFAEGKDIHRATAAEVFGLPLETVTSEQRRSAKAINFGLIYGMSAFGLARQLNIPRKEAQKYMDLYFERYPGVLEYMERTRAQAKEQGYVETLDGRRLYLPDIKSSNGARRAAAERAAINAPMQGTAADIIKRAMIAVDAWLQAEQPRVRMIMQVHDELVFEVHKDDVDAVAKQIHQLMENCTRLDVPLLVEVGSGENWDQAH

Taq DNA polymerase = Taq DNA polymerase (Thermus aquaticus, UniProt P19821); assay: Taq DNA polymerase activity assay; format: biochemical; conditions: 20 µM compound, 0.05 units enzyme; Fig. 3
Chain of Taq DNA polymerase (P19821 whole entry): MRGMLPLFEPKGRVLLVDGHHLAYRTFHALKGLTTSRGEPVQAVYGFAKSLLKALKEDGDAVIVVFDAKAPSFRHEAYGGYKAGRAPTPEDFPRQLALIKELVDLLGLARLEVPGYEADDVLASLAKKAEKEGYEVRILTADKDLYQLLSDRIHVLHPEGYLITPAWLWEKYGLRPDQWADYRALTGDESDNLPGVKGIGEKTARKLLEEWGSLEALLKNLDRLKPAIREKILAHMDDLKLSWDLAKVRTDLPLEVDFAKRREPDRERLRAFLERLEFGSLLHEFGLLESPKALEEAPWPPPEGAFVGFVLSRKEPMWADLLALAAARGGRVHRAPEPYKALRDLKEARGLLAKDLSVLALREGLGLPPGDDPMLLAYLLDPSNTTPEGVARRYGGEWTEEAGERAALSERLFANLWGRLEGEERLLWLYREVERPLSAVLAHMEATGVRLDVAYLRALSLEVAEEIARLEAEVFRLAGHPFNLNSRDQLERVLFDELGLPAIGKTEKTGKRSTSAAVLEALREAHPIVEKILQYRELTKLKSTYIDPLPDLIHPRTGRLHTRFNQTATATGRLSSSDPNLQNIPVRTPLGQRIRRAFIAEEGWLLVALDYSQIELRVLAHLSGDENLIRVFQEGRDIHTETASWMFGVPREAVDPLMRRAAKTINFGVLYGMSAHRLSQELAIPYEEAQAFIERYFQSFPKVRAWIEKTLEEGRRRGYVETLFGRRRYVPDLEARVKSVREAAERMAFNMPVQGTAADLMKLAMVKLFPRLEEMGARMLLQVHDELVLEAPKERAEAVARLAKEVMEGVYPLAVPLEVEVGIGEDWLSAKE

DNA polymerase α [5] = target: T1, DNA polymerase α; assay: Kinetic analysis of pol. α inhibition; format: biochemical, calf; conditions: for Inhibitory mode: from Lineweaver Burk plot
T4 polynucleotide kinase = T4 polynucleotide kinase (Enterobacteria phage T4, UniProt P06855); conditions: 20 µM compound, 0.05 units enzyme; Fig. 3
Chain of T4 polynucleotide kinase (P06855 whole entry): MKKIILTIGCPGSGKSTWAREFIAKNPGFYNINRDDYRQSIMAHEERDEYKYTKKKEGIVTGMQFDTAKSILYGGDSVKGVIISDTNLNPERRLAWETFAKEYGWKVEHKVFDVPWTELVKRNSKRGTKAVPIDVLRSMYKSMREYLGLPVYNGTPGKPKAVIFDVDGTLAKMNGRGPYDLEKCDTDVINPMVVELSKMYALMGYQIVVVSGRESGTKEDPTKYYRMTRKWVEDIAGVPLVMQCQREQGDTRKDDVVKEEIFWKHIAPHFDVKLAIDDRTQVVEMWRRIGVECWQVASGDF

[6] = target: Bovine pancreas deoxyribonuclease I (Bos taurus, UniProt P00639); assay: Deoxyribonuclease I activity assay; format: biochemical; conditions: 20 µM compound, 0.05 units enzyme; Fig. 3
Chain of Bovine pancreas deoxyribonuclease I (P00639 23-282): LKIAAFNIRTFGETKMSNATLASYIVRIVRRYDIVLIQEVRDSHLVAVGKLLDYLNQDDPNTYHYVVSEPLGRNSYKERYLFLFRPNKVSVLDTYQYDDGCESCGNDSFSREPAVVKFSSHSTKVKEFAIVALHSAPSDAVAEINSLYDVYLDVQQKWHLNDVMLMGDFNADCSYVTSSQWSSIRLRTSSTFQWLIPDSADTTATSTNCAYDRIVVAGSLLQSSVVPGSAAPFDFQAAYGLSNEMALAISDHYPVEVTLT

T7 RNA polymerase = T7 RNA polymerase (Escherichia phage T7, UniProt P00573); conditions: 20 µM compound, 0.05 units enzyme; Fig. 3
Chain of T7 RNA polymerase (P00573 whole entry): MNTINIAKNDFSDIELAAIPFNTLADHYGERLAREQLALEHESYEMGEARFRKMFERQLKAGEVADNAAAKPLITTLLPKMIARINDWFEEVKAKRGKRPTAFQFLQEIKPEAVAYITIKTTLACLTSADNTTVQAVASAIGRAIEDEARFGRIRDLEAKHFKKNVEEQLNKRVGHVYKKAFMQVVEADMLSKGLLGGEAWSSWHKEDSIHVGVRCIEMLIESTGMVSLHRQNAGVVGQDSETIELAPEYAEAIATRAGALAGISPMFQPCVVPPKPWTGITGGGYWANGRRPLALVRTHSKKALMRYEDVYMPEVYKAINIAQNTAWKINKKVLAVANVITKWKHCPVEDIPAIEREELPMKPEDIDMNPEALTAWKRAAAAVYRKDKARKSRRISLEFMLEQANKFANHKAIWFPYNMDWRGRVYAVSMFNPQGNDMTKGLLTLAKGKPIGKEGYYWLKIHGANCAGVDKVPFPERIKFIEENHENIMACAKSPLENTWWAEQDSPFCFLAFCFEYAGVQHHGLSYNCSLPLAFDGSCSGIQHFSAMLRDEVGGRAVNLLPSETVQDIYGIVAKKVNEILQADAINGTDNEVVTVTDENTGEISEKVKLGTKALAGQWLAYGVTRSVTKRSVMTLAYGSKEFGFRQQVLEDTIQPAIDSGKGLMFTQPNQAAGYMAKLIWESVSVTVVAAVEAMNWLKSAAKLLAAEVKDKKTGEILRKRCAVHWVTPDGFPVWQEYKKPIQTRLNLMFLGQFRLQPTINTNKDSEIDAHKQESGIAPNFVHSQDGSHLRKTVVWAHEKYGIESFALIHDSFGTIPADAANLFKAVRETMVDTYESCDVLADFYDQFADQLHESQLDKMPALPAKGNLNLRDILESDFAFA

calf thymus TdT = calf thymus TdT (Bos taurus, UniProt P06526); assay: TdT activity assay; format: biochemical; conditions: 20 µM compound, 0.05 units enzyme; Fig. 3
Chain of calf thymus TdT (P06526 whole entry): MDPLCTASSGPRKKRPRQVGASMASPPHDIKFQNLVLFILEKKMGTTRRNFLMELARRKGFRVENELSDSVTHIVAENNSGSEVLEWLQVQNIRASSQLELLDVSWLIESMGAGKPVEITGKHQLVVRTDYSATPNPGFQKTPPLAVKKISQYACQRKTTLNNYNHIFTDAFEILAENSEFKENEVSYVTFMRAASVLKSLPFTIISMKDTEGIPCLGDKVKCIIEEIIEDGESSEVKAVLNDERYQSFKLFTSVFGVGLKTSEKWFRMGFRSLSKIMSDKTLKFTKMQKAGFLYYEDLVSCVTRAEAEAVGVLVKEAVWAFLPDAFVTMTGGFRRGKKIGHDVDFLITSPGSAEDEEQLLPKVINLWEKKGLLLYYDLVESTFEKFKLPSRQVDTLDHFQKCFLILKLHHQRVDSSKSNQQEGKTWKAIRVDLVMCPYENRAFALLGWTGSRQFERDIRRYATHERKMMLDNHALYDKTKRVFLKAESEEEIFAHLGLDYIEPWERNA

T4 DNA polymerase = target: T3, T4 DNA polymerase (Enterobacteria phage T4, UniProt P04415); assay: T4 DNA polymerase activity assay; format: biochemical; conditions: 20 µM compound, 0.05 units enzyme; Fig. 3
T3 sequence (P04415 1-898): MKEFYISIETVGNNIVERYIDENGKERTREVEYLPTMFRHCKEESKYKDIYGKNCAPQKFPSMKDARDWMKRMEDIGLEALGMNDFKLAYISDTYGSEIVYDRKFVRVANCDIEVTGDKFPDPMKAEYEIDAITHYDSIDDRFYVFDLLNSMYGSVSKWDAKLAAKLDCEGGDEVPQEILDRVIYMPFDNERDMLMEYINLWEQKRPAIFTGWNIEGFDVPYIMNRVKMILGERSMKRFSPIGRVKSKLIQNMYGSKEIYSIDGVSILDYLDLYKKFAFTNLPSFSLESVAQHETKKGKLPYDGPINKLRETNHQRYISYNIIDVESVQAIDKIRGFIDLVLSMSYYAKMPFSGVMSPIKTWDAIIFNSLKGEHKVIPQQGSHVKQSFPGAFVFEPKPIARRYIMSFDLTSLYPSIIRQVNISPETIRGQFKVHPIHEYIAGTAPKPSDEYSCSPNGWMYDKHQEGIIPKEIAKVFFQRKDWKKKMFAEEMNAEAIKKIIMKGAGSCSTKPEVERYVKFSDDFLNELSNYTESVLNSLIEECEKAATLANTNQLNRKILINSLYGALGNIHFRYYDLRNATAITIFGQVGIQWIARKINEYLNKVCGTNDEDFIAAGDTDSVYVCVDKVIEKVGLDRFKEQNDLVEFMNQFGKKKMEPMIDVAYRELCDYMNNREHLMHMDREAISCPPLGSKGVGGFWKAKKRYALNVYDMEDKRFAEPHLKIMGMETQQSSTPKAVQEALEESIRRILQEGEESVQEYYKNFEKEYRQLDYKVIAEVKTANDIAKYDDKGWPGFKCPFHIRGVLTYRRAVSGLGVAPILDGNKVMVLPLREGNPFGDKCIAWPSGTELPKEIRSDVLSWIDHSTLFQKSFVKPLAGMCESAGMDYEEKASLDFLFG

[7] = read-out: IC50 Pol. β, 50%-inhibitory concentration, Table I
[8] = nucleotide substrate dTTP, from Dixon plot
[9] = template-primer poly(dA)/oligo(dT)12-18, from Dixon plot
[10] = versus nucleotide substrate dTTP

CCCCCCCCCCCCCC(=O)OCC(CO)OC(=O)CCCCCCCCCCCCC (stereo not shown)
MIC Pol. α (DNA polymerase α [1]): > 1000 µM
IC50 (DNA polymerase α [1]; read-out: IC50 Pol. α): 550 µM
IC50 (DNA polymerase β [2]; [7]): > 1000 µM

CCCCCCCCCCCCCCCC(=O)OCC(CO)OC(=O)CCCCCCCCCCCCCCC (stereo not shown)
MIC Pol. α (DNA polymerase α [1]): > 1000 µM
IC50 (DNA polymerase α [1]; read-out: IC50 Pol. α): 470 µM
IC50 (DNA polymerase β [2]; [7]): > 1000 µM

CCCCCCCCCCCCCC(=O)OC[C@H](CO[C@H]1O[C@H](CS(=O)(=O)O)[C@@H](O)[C@H](O)[C@H]1O)OC(=O)CCCCCCCCCCCCC [C14--SQDG]
MIC Pol. α (DNA polymerase α [1]): 5.3 µM and 5.2 µM
IC50 (DNA polymerase α [1]; read-out: IC50 Pol. α): 1.8 µM and 1.9 µM
MIC Pol. β (DNA polymerase β [2]; Table I): 37 µM and 40 µM
IC50 (DNA polymerase β [2]; [7]): 23 µM and 20 µM

CCCCCCCCCCCCCCCC(=O)OC[C@H](CO[C@H]1O[C@H](CS(=O)(=O)O)[C@@H](O)[C@H](O)[C@H]1O)OC(=O)CCCCCCCCCCCCCCC [C16--SQDG]
MIC Pol. α (DNA polymerase α [1]): 3.4 µM and 3.6 µM
MIC Pol. β (DNA polymerase β [2]; Table I): 45 µM and 46 µM
IC50 (DNA polymerase β [2]; [7]): 25 µM

CCCCCCCCCCCCCCCC(=O)OC[C@@H](O)CO[C@H]1O[C@H](CS(=O)(=O)O)[C@@H](O)[C@H](O)[C@H]1O [C16--SQMG]
MIC Pol. α (DNA polymerase α [1]): 9.1 µM and 14 µM
IC50 (DNA polymerase α [1]; read-out: IC50 Pol. α): 4 µM and 5.9 µM
MIC Pol. β (DNA polymerase β [2]; Table I): 43 µM and 46 µM
IC50 (DNA polymerase β [2]; [7]): 34 µM and 36 µM

CCCCCCCCCCCCCCCCCC(=O)OC[C@H](CO[C@H]1O[C@H](CS(=O)(=O)O)[C@@H](O)[C@H](O)[C@H]1O)OC(=O)CCCCCCCCCCCCCCCCC [C18--SQDG]
Ki (DNA polymerase β [3]; [8]): 36 µM
Vmax (DNA polymerase β [3]; nucleotide substrate dTTP, one value printed for all sulfolipid conc.): 38 pmol/h
Ki (DNA polymerase β [3]; [9]): 5 µM
Inhibitory mode (DNA polymerase β [3]; [10]): Competitive
Inhibitory mode (DNA polymerase β [3]; versus template-primer): Competitive
Effect on HIV-1 reverse transcriptase activity [4]: moderate inhibitory effect
Effect on E. coli DNA polymerase I activity (E. coli DNA polymerase I): hardly affected
Effect on Taq DNA polymerase activity (Taq DNA polymerase): hardly affected
Ki (DNA polymerase α [5]; [8]): 0.6 µM
Vmax (DNA polymerase α [5]; nucleotide substrate dTTP, sulfolipid conc. 0.2): 170 pmol/h
Vmax (DNA polymerase α [5]; nucleotide substrate dTTP, sulfolipid conc. 0.4): 100 pmol/h
Vmax (DNA polymerase α [5]; nucleotide substrate dTTP, sulfolipid conc. 0.6): 56 pmol/h
Ki (DNA polymerase α [5]; [9]): 0.2 µM
Vmax (DNA polymerase α [5]; template-primer, sulfolipid conc. 0.2): 100 pmol/h
Vmax (DNA polymerase α [5]; template-primer, sulfolipid conc. 0.4): 56 pmol/h
Vmax (DNA polymerase α [5]; template-primer, sulfolipid conc. 0.6): 40 pmol/h
Inhibitory mode (DNA polymerase α [5]; [10]): Non-competitive
Inhibitory mode (DNA polymerase α [5]; versus template-primer): Non-competitive
MIC Pol. α (DNA polymerase α [1]): 1.1 µM and 1.2 µM
Relative activity (DNA polymerase α [1]; 2 µM compound + 40 µM poly(rC)): 12%
Relative activity (DNA polymerase α [1]; 2 µM compound + 0.05% NP-40): 15%
Relative activity (DNA polymerase α [1]; 2 µM compound + 80 g/ml BSA): 16%
Relative activity (DNA polymerase α [1]; 2 µM compound alone): 10%
IC50 (DNA polymerase α [1]; read-out: IC50 Pol. α): 0.4 µM
MIC Pol. β (DNA polymerase β [2]; Table I): 60 µM and 62 µM
Relative activity (DNA polymerase β [2]; 20 µM compound + 40 µM poly(rC)): 59%
Relative activity (DNA polymerase β [2]; 20 µM compound + 0.05% NP-40): 101%
Relative activity (DNA polymerase β [2]; 20 µM compound + 80 g/ml BSA): 63%
Relative activity (DNA polymerase β [2]; 20 µM compound alone): 65%
IC50 (DNA polymerase β [2]; [7]): 37 µM and 43 µM
Effect on T4 polynucleotide kinase activity (T4 polynucleotide kinase): hardly affected
Effect on deoxyribonuclease I activity [6]: hardly affected
Effect on T7 RNA polymerase activity (T7 RNA polymerase): hardly affected
Effect on TdT activity (calf thymus TdT): inhibited
Effect on T4 DNA polymerase activity (T4 DNA polymerase): hardly affected

O=S(=O)(O)C[C@@H]1OC(OCC(O)CO)[C@@H](O)[C@H](O)[C@@H]1O (stereo partly shown) [I&II&III + Fucose + -]
IC50 (DNA polymerase α [1]; read-out: IC50 Pol. α): > 1000 µM
IC50 (DNA polymerase β [2]; [7]): > 1000 µM

O=S(=O)(O)C[C@H]1O[C@H](OCC(O)CO)[C@H](O)[C@@H](O)[C@@H]1O (stereo partly shown) [I&II&III + Quinovose + -]
IC50 (DNA polymerase α [1]; read-out: IC50 Pol. α): > 1000 µM
IC50 (DNA polymerase β [2]; [7]): > 1000 µM

C[C@H](O)[C@@H](O)[C@@H](O)[C@H](O)C=O [II - Fucose - -, Fucose]
IC50 (DNA polymerase α [1]; IC50 Pol. α): > 1000 µM
IC50 (DNA polymerase β [2]): > 1000 µM
